Activity calls are given as the source filed them. No cut-off for these calls is given here.
What was measured:
[1] = target: Receptor tyrosine-protein kinase erbB-2 (Mus musculus, UniProt P70424); assay: Inhibition of ERBB2 expressed in mouse NIH3T3 cells; format: cell-based
[2] = target: Receptor tyrosine-protein kinase erbB-3 (Homo sapiens) (UniProt P21860); assay: Inhibition of ERBB3 phosphorylation in human HCC827 cells expressing GFP at 1 to 10000 nmol/L incubated for 12 hrs by Western blotting analysis; format: cell-based; conditions: dose 1-10000 nmol/L
NCI-H3255 = assay: Induction of apoptosis in human NCI-H3255 cells assessed as increase in cleavage of PARP at 1 micromol/L incubated for 72 hrs by Western blotting analysis; format: functional, cell-based; conditions: dose 1.0 µmol/L

Sequence of Receptor tyrosine-protein kinase erbB-2 (P70424 whole entry): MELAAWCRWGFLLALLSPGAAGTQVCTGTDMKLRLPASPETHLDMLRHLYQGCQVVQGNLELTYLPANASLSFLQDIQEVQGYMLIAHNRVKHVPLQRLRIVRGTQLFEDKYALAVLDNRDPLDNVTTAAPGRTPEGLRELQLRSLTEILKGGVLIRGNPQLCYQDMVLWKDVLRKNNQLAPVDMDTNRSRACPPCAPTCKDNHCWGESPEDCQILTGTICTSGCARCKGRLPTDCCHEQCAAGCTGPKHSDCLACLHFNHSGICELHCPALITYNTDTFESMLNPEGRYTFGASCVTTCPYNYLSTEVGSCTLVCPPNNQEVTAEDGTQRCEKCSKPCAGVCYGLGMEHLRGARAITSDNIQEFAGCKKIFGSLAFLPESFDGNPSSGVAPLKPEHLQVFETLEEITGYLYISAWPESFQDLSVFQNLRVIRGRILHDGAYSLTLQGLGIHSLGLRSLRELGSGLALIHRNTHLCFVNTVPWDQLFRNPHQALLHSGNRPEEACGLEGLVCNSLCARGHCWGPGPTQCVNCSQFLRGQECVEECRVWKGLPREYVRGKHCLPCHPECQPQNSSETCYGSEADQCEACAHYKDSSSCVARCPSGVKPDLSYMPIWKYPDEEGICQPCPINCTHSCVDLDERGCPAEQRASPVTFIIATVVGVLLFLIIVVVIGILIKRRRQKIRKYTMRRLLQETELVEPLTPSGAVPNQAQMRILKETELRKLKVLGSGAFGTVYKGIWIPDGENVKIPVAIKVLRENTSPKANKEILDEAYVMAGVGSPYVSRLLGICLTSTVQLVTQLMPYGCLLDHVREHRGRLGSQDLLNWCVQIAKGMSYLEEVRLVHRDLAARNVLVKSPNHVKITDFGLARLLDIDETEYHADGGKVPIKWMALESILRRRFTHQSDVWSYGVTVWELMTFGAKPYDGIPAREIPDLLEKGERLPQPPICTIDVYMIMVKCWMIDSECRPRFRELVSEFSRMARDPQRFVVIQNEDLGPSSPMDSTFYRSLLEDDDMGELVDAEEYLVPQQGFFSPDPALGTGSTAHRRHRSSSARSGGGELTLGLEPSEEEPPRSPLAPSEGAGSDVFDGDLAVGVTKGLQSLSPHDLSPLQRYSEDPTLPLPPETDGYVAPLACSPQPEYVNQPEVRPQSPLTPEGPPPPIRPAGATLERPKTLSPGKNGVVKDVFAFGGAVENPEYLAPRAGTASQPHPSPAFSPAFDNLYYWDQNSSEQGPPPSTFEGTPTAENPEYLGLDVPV
Sequence of Receptor tyrosine-protein kinase erbB-3 (Homo sapiens) (P21860 whole entry): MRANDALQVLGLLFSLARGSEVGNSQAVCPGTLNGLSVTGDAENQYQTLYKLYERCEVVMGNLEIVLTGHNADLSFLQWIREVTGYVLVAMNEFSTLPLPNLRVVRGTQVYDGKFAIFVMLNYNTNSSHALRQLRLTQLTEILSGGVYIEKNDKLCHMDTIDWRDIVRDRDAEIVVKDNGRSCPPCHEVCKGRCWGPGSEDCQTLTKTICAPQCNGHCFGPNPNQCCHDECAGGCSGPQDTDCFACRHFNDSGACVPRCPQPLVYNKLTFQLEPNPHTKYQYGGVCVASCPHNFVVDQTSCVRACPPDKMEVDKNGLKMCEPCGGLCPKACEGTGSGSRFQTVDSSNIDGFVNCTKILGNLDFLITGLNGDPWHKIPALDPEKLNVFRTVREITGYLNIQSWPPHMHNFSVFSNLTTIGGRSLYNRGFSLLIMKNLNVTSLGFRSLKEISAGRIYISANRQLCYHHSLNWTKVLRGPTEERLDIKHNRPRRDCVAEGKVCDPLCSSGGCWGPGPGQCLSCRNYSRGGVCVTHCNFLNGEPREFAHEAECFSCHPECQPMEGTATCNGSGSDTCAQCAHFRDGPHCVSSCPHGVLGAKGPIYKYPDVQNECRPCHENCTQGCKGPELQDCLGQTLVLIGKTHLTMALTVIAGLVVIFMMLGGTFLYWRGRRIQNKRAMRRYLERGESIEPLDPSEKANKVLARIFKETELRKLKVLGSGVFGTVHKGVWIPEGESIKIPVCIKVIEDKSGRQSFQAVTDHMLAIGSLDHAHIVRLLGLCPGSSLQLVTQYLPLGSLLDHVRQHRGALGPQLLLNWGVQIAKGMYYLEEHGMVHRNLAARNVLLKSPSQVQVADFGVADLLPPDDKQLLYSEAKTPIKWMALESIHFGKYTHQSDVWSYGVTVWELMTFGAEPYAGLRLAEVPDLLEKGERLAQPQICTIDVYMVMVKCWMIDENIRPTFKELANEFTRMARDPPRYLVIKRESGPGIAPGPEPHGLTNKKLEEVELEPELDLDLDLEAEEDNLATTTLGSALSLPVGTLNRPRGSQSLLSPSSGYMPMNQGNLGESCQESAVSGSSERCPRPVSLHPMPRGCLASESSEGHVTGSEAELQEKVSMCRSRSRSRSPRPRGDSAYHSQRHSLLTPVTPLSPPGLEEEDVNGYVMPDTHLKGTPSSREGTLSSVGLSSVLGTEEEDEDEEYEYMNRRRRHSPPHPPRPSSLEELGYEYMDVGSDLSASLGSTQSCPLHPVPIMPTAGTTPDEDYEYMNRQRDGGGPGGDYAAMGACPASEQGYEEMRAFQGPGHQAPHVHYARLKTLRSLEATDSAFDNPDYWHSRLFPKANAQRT

IC50 [1]	inhibition [2]	Structure (SMILES)	Activity (NCI-H3255)
299 nM		C#Cc1cccc(Nc2ncnc3cc(OCCOC)c(OCCOC)cc23)c1 [ERLOTINIB]	
> 500 nM	Active	COc1cc2ncnc(Nc3ccc(F)c(Cl)c3)c2cc1OCCCN1CCOCC1 [GEFITINIB]	Active

From ChEMBL document CHEMBL5661976 (Cancer Res, 2007)
